Measured values published in patent US20220073638A1, “METHODS AND PHARMACEUTICAL COMPOSITION FOR THE TREATMENT OF CANCERS RESISTANT TO IMMUNE CHECKPOINT THERAPY” (INSERM (INSTITUT NATIONAL DE LA SANTÉ ET DE LA RECHERCHE …, priority 2018, published 2022).

System: CD163+ TAMs
Format: in vivo, mouse
Procedure: To deplete CD163^+ TAM we generated knock-in mice expressing iCre recombinase from a Cd163-IRES-iCre transcript (CD163-iCre) and crossed them to Csflr-LSL-DTR mice that after cre-mediated deletion of LSL, have DTR expression under the control of the Csflr promotor. A single injection of 4 ng/kg diphteria toxin (DT) specifically depleted close to 50% of CD163+ TAMs after 24 hrs (data not shown). No effect, was observed on the remaining myeloid compartment except for a small increase in recruited monocytes (data not shown). Next, we attempted to achieve sustained depletion of CD163+ TAMs by repeated DT injections.

Substance: diphteria toxin [DT]
- side effects of sustained depletion of CD163+ macrophages (repeated DT injections): severe side-effect
- tumor growth (repeated DT injections, CD163-iCre+/-, Csf1r-LSL-DTR+/- mice compared to Csf1r-LSL-DTR wildtype mice): significantly reduced tumor growth
- depletion of CD163+ TAMs (single injection of 4 ng/kg DT, after 24 hrs): ~50%
- effect on the remaining myeloid compartment (single injection of 4 ng/kg DT, except for a small increase in recruited monocytes): No effect
